Results as given in patent US20050260126A1 (priority 2002, published 2005).
Structures can show the parent of a compound that is named as a salt.

Columns and labels:
[1] = tested on: abnormal prion proteins (kuru plaques) in brain sections of GSS patients; set-up: species or system human; conditions: GSS patient brain sections, 10-200 μM in 50% ethanol, 30 minutes
[2] = tested on: abnormal prion proteins in ScN2a cells with persistent infection of scrapie; assay: cells; format: cell-based, mouse; conditions: for IC50: Mus musculus, ScN2a, 96 h, read-out: Inhibitory effects on producing abnormal prion protein IC50; for Inhibitory effects on producing abnormal prion proteins (in words): ScN2a cells
[3] = tested on: ScN2a cells; conditions: for Concentration of inhibiting cell proliferation TC: mouse
[4] = in vivo; conditions: male, Crj:CD1, mouse, iv
[5] = Slc:ICR, mouse, not told, iv

Row | SMILES | Detection of spotted depositions of abnormal prion proteins (fluorescent signals) [1] | IC50 [2] [nM] | Inhibitory effects on producing abnormal prion proteins (in words) [2] | Concentration of inhibiting cell proliferation TC [3] [µM] | MTD [4] [mg/kg] | Permeability into the brain: content in Brain [5] | Permeability into the brain: content in Plasma [5] | TC and safety concentration margin (in words) [3]
1 | CCN(CC)c1ccc(/C=C/c2cn3cc(F)ccc3n2)cc1 [BF-136, 2-[2-(4-diethylaminophenyl)ethenyl]-6-fluoroimidazo[1,2-a]-pyridine] | spotted fluorescent signals were observed | 1 | highly inhibitory effects | 10 | – | – | – | –
2 | Nc1ccc(/C=C/c2nc3cc(F)ccc3o2)cc1 [BF-140, 2-(4-amino)styryl-5-fluorobenzoxazole] | – | 5 | – | 50 | ≥ 10 | 5.5 % ID/g or ml | 1.1 % ID/g or ml | –
3 | CN(C)c1ccc(/C=C/c2ccco2)cc1 [BF-142, 2-[2-(4-dimethylamino-phenyl)ethenyl]furan] | spotted fluorescent signals were observed | 10 | – | 100 | – | – | – | –
4 | CN(C)c1ccc(/C=C/c2nc3ccc(F)cc3o2)cc1 [BF-148, 2-(4-dimethylamino) styryl-6-fluoro-benzoazole] | spotted fluorescent signals were observed | 1 | highly inhibitory effects | 10 | – | – | – | –
5 | CN(C)c1ccc2cc(-c3nc4cc(F)ccc4o3)ccc2c1 [BF-151, 5-fluoro-2-(6-dimethyl-aminonaphthalen-2-yl)benzoxazole] | spotted fluorescent signals were observed | 10 | – | 100 | – | – | – | –
6 | CN(C)c1ccc(/C=C/c2nc3cc(F)ccc3s2)cc1 [BF-162, 2-(4-dimethylamino) styryl-5-fluorobenzo-thiazole] | spotted fluorescent signals were observed | 10 | – | 100 | – | – | – | –
7 | CNc1ccc(-c2nc3ccc(O)cc3s2)cc1 [BF-172, 2-(4-methylamino)-phenyl-6-hydroxybenzo thiazole] | – | 1.6 | – | >10 | ≥ 10 | 4.9 % ID/g or ml | 2.9 % ID/g or ml | –
8 | CNc1ccc(/C=C/c2ccc3ccccc3n2)cc1 [BF-178, 2-[2-(4-methylaminophenyl)ethenyl]quinoline] | – | 1000 | – | 100 | ≥ 10 | 6.3 % ID/g or ml | 4.5 % ID/g or ml | –
9 | CNc1ccc(/C=C/c2nc3cc(I)ccc3o2)cc1 [BF-180, 2-(4-methylamino)-styryl-5-iodobenzoxazole] | – | 10 | – | 100 | ≥ 10 | 2.4 % ID/g or ml | 1.2 % ID/g or ml | –
10 | CNc1ccc(/C=C/C=C/c2nc3ccccc3s2)cc1 [BF-187, 2-[[4-(4-methylamino)-phenyl]-1,3-butadienyl]-benzothiazole] | – | 10 | – | 10 | ≥ 10 | 3.6 % ID/g or ml | 1.3 % ID/g or ml | –
11 | CN(C)c1ccc(/C=C/c2nc3ccccc3s2)c(O)c1 [BF-192, 2-[2-(2-hydroxy-4-dimethylaminophenyl)ethenyl]benzothiazole] | – | 1.6 | – | >10 | ≥ 10 | 5.5 % ID/g or ml | 2.6 % ID/g or ml | –
12 | CN(C)c1ccc(/C=C/c2ccc3ccccc3n2)c(O)c1 [BF-193, 2-[2-(2-hydroxy-4-dimethylaminophenyl)ethenyl]quinoline] | – | 1.6 | – | 10 | ≥ 10 | 5.2 % ID/g or ml | 2.7 % ID/g or ml | –
13 | CNc1ccc(C=Cc2ccc3ccccc3n2)c(CF)c1 [BF-195, 2-[2-(2-fluoromethyl-4-methylaminophenyl)-ethenyl]quinoline] | – | 32 | – | 10 | ≥ 10 | 4.8 % ID/g or ml | 1.2 % ID/g or ml | –
14 | CN(C)c1ncc(/C=C/c2nc3ccccc3o2)s1 [BF-197, 2-[2-(2-dimethyl-aminothiazol-5-yl)-ethenyl]benzoxazole] | – | 16 | – | 10 | ≥ 10 | 15 % ID/g or ml | 1.9 % ID/g or ml | –
15 | CNc1ccc(C=Cc2ccc3ccccc3n2)c(O)c1 [BF-198, 2-[2-(2-hydroxyl-4-methylaminophenyl)-ethenyl]quinoline] | – | 0.8 | – | 10 | ≥ 10 | 9.9 % ID/g or ml | 4.7 % ID/g or ml | –
16 | Fc1ccc(/C=C/c2nc3ccccc3o2)cc1 [BF-208, 2-[2-(4-fluorophenyl)ethenyl]benzoxazole] | – | 0.8 | – | >10 | ≥ 10 | 11.0 % ID/g or ml | 0.53 % ID/g or ml | –
17 | CN(C)c1ncc(/C=C/c2ccc3ccccc3n2)s1 [BF-222, 2-[2-(2-dimethylthiazol-5-yl)ethenyl]quinoline] | – | 8 | – | >10 | ≥ 10 | 13.0 % ID/g or ml | 2.0 % ID/g or ml | –
18 | Nc1ccc(C(=O)Nc2ccc(-c3nc4ccc(NC(=O)c5ccc(N)cc5)c(Cl)c4[nH]3)cc2)cc1 [Compound N-227, 4-[6-(N′-(4-amino-benzoyl)amino)-7-chlorobenzimidazol-2-yl]-N-(4-aminobenzoyl)aniline] | spotted fluorescent signals were observed | 10 | – | 10 | – | – | – | –
19 | CN(C)c1ccc(/C=C/c2nc3ccccc3s2)cc1 [Compound N-276, 4-[2-(2-benzothiazolyl)-ethenyl]-N,N-dimethyl-benzenamine] | spotted fluorescent signals were observed | 5 | – | 50 | – | – | – | –
20 | CN(C)c1ccc(/C=C/c2nc3cc4c(cc3s2)OCO4)cc1 [Compound N-277, 4-[2-(5,6-methylene-dioxy-benzothiazol-2-yl)ethenyl]-N,N-di-methylbenzenamin] | detection of spotted depositions of abnormal prion proteins | 50 | – | 50 | – | – | – | –
21 | Nc1ccc(/C=C/c2nc3ccccc3[nH]2)cc1 [Compound N-398, 4-[2-(2-benzimidazolyl)-ethenyl]benzenamine sulfate] | spotted fluorescent signals were observed | 5 | – | 50 | – | – | – | –
22 | COc1cc(/C=C/c2nc3ccccc3s2)cc(OC)c1 [Compound N-408, 2-[2-(3,5-dimethoxy-phenyl)ethenyl]-benzothiazole] | spotted fluorescent signals were observed | 10 | – | 100 | – | – | – | –
23 | Cc1ccc2sc(/C=C/c3ccccc3C)nc2c1 [Compound N-440, 2-[2-(2-methylphenyl)-ethenyl]-5-methyl-benzothiazole] | spotted fluorescent signals were observed | 100 | – | 100 | – | – | – | –
24 | Fc1ccc(/C=C/c2nc3ccccc3s2)cc1 [Compound N-453, 2-[2-(4-fluorophenyl)ethenyl]benzothiazole] | – | 1 | highly inhibitory effects | 100 | ≥ 10 | 5.0 % ID/g or ml | 1.4 % ID/g or ml | higher TCs, therefore higher safety concentration margins
25 | Clc1ccccc1/C=C/c1nc2ccccc2s1 [Compound N-454, 2-[2-(2-chlorophenyl)ethenyl]benzothiazole] | spotted fluorescent signals were observed | 10 | – | 100 | – | – | – | –
26 | Clc1ccc(/C=C/c2nc3ccccc3[nH]2)cc1 [Compound N-457, 2-[2-(4-chlorophenyl)ethenyl]benzimidazole] | – | 1 | highly inhibitory effects | 100 | ≥ 10 | 7.1 % ID/g or ml | 2.8 % ID/g or ml | higher TCs, therefore higher safety concentration margins
27 | C(=C\c1nc2ccccc2[nH]1)/c1ccccc1 [Compound N-491, 2-styrylbenzimidazole] | – | 10 | – | 100 | ≥ 10 | 7.4 % ID/g or ml | 2.3 % ID/g or ml | –
